According to PubChem BioAssay (NCI):
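Five concentrations, 48 hours, 96-well plates. GI50 is the concentration that inhibits growth by half. TGI: concentration producing complete growth inhibition.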

Assays:
Experiment in all cases: NCI tumour cell line growth inhibition, 48 h
COLO 205 colon = tested on: COLO 205 colon
OVCAR-8 ovarian = tested on: OVCAR-8 ovarian
HT29 colon = tested on: HT29 colon
SF-539 CNS = tested on: SF-539 CNS
SK-MEL-28 melanoma = tested on: SK-MEL-28 melanoma
RPMI-8226 leukemia = tested on: RPMI-8226 leukemia
SK-MEL-2 melanoma = tested on: SK-MEL-2 melanoma
OVCAR-5 ovarian = tested on: OVCAR-5 ovarian
BT-549 breast = tested on: BT-549 breast
HS 578T breast = tested on: HS 578T breast

Row | SMILES | TGI (COLO 205 colon) [µM] | TGI (OVCAR-8 ovarian) [µM] | TGI (HT29 colon) [µM] | GI50 (SF-539 CNS) [µM] | TGI (SF-539 CNS) [µM] | TGI (SK-MEL-28 melanoma) [µM] | TGI (RPMI-8226 leukemia) [µM] | TGI (SK-MEL-2 melanoma) [µM] | TGI (OVCAR-5 ovarian) [µM] | TGI (BT-549 breast) [µM] | TGI (HS 578T breast) [µM] | GI50 (HS 578T breast) [µM] | GI50 (RPMI-8226 leukemia) [µM] | GI50 (COLO 205 colon) [µM] | GI50 (OVCAR-8 ovarian) [µM] | GI50 (SK-MEL-2 melanoma) [µM] | GI50 (HT29 colon) [µM]
1 | O=c1cccccc1[O-].O=c1cccccc1[O-].[O]=[U+2]=[O] | 60.8 | 99.6 | > 100 | 20.6 | 43.1 | 61 |  |  |  |  |  |  |  |  |  |  | 
2 | O=C(OCN1C(=O)C2C3C=CC(C2C1=O)C1C2C(=O)N(COC(=O)C4CCCN4)C(=O)C2C31)C1CCCN1 (stereo not drawn) | > 100 | 67.5 | > 100 |  | > 100 | > 100 | 54.1 | > 31.6 | > 100 |  |  |  |  |  |  |  | 
3 | Cc1nn(-c2ccccc2)c(C)c1/C=N/N=C1\SCC(=O)N1c1ccccc1 | 39.9 | 55.1 | 73.9 |  | 67.2 | 67.9 | 35.3 | 58.4 | > 100 | 43 | > 100 |  |  |  |  |  | 
4 | CNC(=O)OCc1c(CO)nc(SC)n1C | > 100 | > 100 | > 100 |  | > 100 | > 100 | > 100 | > 100 | > 100 |  |  |  |  |  |  |  | 
5 | O=C(/C=C/c1ccccc1)NNC(=O)c1c(Cl)c(Cl)c(Cl)c(Cl)c1-c1nc2ccccc2[nH]1 | 33.2 | > 100 | > 100 |  | > 100 | > 100 | 83.2 | 80.8 | > 100 | 76.1 |  |  |  |  |  |  | 
6 | COc1cc2c(cc1O)CC[C@@H]1[C@@H]2CC[C@]2(C)[C@@H](OCCN(C)C)CC[C@@H]12 | 1.17 | 5.88 | 0.568 | 0.129 | 0.414 |  | 0.312 | 1.04 |  |  | 4 | 0.463 | 0.116 | 0.521 | 0.488 | 0.23 | 0.158
7 | COc1cc2c(ccc3c4cc(OC)c(OC)cc4c[n+](C)c23)cc1O | > 75 | 62 | > 75 |  | 28.7 | > 75 | > 75 | > 71.5 | > 34.5 |  |  |  |  |  |  |  | 
8 | CCN(CC(=O)O)C(=O)c1cccnc1 |  | > 100 | > 100 |  |  | > 100 |  | > 100 | > 100 | > 100 | > 100 |  |  |  |  |  | 
9 | CCC(C)C1=C(OC(C)=O)[N+]2([O-])Oc3ccc(-c4c(OC(C)=O)c(OC(C)=O)c(-c5ccc(OC(C)=O)cc5)c(OC(C)=O)c4OC(C)=O)cc3OC2(C(C)CC)C(=O)N1OC(C)=O (stereo not drawn) | > 50 | > 50 | > 50 |  | > 50 | 44.7 | 22.8 | 43.2 | > 50 |  |  |  |  |  |  |  | 
10 | O=C(C[n+]1ccc2ccccc2c1)c1ccc2ccc3ccccc3c2c1 | 3.87 | 19.8 | 12.2 |  | 14.2 | 9.08 | 0.646 | 15.9 | 19.8 | 24 | 35.2 |  |  |  |  |  | 
11 | CC1=CC(=O)c2ccccc2C1=O | 31.8 | 22.7 | 34.1 |  | 11.9 | 16.6 | 5.39 | 22.7 | 26.7 | 25.6 | 41.4 |  |  |  |  |  | 
12 | C[C@H](CCC(=O)O)[C@H]1CC[C@@]2(C)[C@@H]3C(=O)C[C@H]4C(C)(C)[C@@H](O)CC[C@]4(C)[C@H]3C(=O)C[C@]12C | > 100 | > 100 | > 100 |  | > 100 | > 100 | > 100 | > 100 | > 100 | > 100 | > 100 |  |  |  |  |  | 
13 | CCOC(=O)C1=NN(c2ccc(C)cc2)C2=CC(C)=NN(C)C(=S)N21 | > 100 | > 100 | > 100 |  | > 100 | > 100 | > 100 | > 100 | > 100 | > 100 | > 100 |  |  |  |  |  | 
14 | O=C(/C=C/c1ccc(O)c(-c2cc(C(=O)/C=C/c3ccc(O)cc3)c(O)cc2O)c1)c1ccc(O)cc1O | 24 | 24.7 | 22.3 |  | 26.3 | 22.1 | > 50 | > 50 | > 50 | > 50 | > 50 |  |  |  |  |  | 
15 | CC1CC[C@@]2(OC1)OC1C[C@H]3[C@@H]4CC=C5CC(OC6OC(CO)C(OC7OC(CO)C(O)C(OC8OCC(O)C(O)C8O)C7OC7OC(CO)C(O)C(O)C7O)C(O)C6O)CCC5(C)[C@H]4CCC3(C)C1[C@@H]2C (stereo partly drawn) | 8.16 | 8.95 | 9.4 |  | 7.37 | > 25 | 18.4 | > 25 | > 25 | 9.24 | 9.57 |  |  |  |  |  | 
16 | Cc1c(N2C(=O)CS(=O)(=O)C2c2cccc(Oc3ccccc3)c2)c(=O)n(-c2ccccc2)n1C (stereo not drawn) | 95.8 | > 100 | > 100 |  | > 100 | > 100 | 74.4 | > 100 | > 100 | > 100 | > 100 |  |  |  |  |  | 
